# Calls of active or inactive are those of the source. The calls are words filed in the database; no cut-off is given here.
# Assays:
# [1] = system: Hep 3B2; assay: Antimigratory activity in human Hep3B cells assessed as inhibition of VEGF-induced migration at 0.8 to 20 uM by real time cell analysis; format: functional, cell-based
# [2] = system: HUVEC; assay: Antimigratory activity in HUVEC assessed as inhibition of VEGF-induced migration at 0.8 to 20 uM by real time cell analysis; format: functional, cell-based; conditions: Homo sapiens
# [3] = Cytotoxicity against human Hep3B cells at >20 uM after 12 hrs by MTT assay; format: cell-based; conditions: hep 3b2, 12 h
# [4] = Acute toxicity in Swiss mouse assessed as mortality rate at 200 mg/kg, iv after 14 days relative to control; format: organism-based; parameters: dose 200 mg/kg, route intravenous; conditions: in vivo
# [5] = system: HUVEC; assay: Antiinvasive activity in HUVEC assessed as inhibition of VEGF-induced invasion after 30 mins by transwell assay; format: functional, cell-based; conditions: Homo sapiens
# [6] = system: Hep 3B2; assay: Antitumor activity against human Hep3B cells xenografted in Balb/c nude mouse assessed as reduction in MMP-2 expression at 2.5 to 5 mg/kg, iv by immunohistochemical analysis; format: functional, organism-based
# [7] = Acute toxicity in Swiss mouse assessed as mortality rate at 300 mg/kg, iv after 14 days relative to control; format: organism-based; parameters: dose 300 mg/kg, route intravenous; conditions: in vivo
# [8] = Acute toxicity in iv dosed Swiss mouse; format: organism-based; conditions: in vivo
# [9] = system: Mus musculus; assay: Acute toxicity in Swiss mouse assessed as structural abnormality in lung at 300 mg/kg, iv after 14 days by histological analysis relative to control; format: organism-based; parameters: dose 300 mg/kg, route intravenous; conditions: in vivo, 336 h
# [10] = Reduction of hypoxia-induced VEGF expression in human Hep3B cells after 48 hrs by Western blotting analysis; format: functional, cell-based; conditions: Hep 3B2
# [11] = Reduction of hypoxia-induced HIF-1 beta expression in human Hep3B cells after 48 hrs by Western blotting analysis; format: functional, cell-based; conditions: Hep 3B2
# [12] = Reduction of hypoxia-induced HIF-1 alpha expression in human Hep3B cells after 48 hrs by Western blotting analysis; format: functional, cell-based; conditions: Hep 3B2
# [13] = Reduction of hypoxia-induced VEGF mRNA expression in human Hep3B cells after 48 hrs by RT-PCR analysis; format: functional, cell-based; conditions: Hep 3B2
# [14] = system: Hep 3B2; assay: Antiinvasive activity in human Hep3B cells assessed as inhibition of VEGF-induced invasion after 30 mins by transwell assay; format: functional, cell-based
# [15] = system: Mus musculus; assay: Toxicity in Balb/c nude mouse xenografted with human Hep3B cells assessed as change in body weight at 2.5 to 5 mg/kg, iv; format: organism-based, Hep 3B2; parameters: dose 2.5-5 mg/kg, route intravenous; conditions: in vivo
# [16] = system: Hep 3B2; assay: Antitumor activity against human Hep3B cells xenografted in Balb/c nude mouse assessed as reduction in microvessel density at 2.5 to 5 mg/kg, iv by immunohistochemical analysis; format: functional, organism-based
# [17] = system: Mus musculus; assay: Acute toxicity in Swiss mouse assessed as structural abnormality in kidney at 300 mg/kg, iv after 14 days by histological analysis relative to control; format: organism-based; parameters: dose 300 mg/kg, route intravenous; conditions: in vivo, 336 h
# [18] = system: HUVEC; assay: Cytotoxicity against HUVEC at >20 uM after 12 hrs by MTT assay; format: cell-based; conditions: human
# [19] = system: HUVEC; assay: Antiangiogenic activity in HUVEC assessed as inhibition of VEGF-induced tube formation after 30 mins by matrigel assay; format: functional, cell-based; conditions: Homo sapiens
# [20] = system: Hep 3B2; assay: Antitumor activity against human Hep3B cells xenografted in iv dosed Balb/c nude mouse assessed as inhibition of tumor growth after 11 days; format: functional, organism-based
# [21] = Acute toxicity in Swiss mouse assessed as mortality rate at 100 mg/kg, iv after 14 days relative to control; format: organism-based; parameters: dose 100 mg/kg, route intravenous; conditions: in vivo
# [22] = Reduction of hypoxia-induced HIF-1 alpha expression in human Hep3B cells at 10 uM after 48 hrs by Western blotting analysis; format: functional, cell-based; conditions: Hep 3B2
# [23] = Reduction of hypoxia-induced HIF-1 beta expression in human Hep3B cells at 10 uM after 48 hrs by Western blotting analysis; format: functional, cell-based; conditions: Hep 3B2
smiles,measurement,setting,value
COc1ccc(/C=C/C(=O)c2ccc3c(c2O)C=CC(C)(C)O3)cc1O,Activity,[1],Active
same,Activity,[2],Active
same,Activity,[3],Non-toxic
same,mortality at 336 h,[4],0%
same,Activity,[5],Dose-dependent effect
same,Activity,[6],Active
same,mortality at 336 h,[7],16.7%
same,MTD,[8],22 mg/kg
same,Activity,[9],Non-toxic
same,Activity,[10],Dose-dependent effect
same,Activity,[11],Dose-dependent effect
same,Activity,[12],Dose-dependent effect
same,Activity,[13],Dose-dependent effect
same,Activity,[14],Dose-dependent effect
same,Activity,[15],Non-toxic
same,Activity,[16],Active
same,Activity,[17],Non-toxic
same,Activity,[18],Non-toxic
same,inhibition,[19],Dose-dependent effect
same,inhibition,[20],Dose-dependent effect
same,mortality at 336 h,[21],0%
CC[C@@]1(O)C(=O)OCc2c1cc1n(c2=O)Cc2cc3c(CN(C)C)c(O)ccc3nc2-1,Activity,[22],Active
same,Activity,[23],Active
